Read-outs that look alike come from different tables or passages of the source. Numbered stars: 1 amine (or outer) side, 2 acyl side, 3 side chain; on linkers, the order of the positions; unused ones are H or OH. Bridge positions count the residues as written; N and C are the ends. Square brackets hold non-standard residues; d marks the D form. Peptide text beside a SMILES is read from it. Trp(7-Me) = Cc1cccc2c(C[C@H](N)C(=O)O)c[nH]c12; Abu(4-yl) = O=C([C@H](CC[*:3])N[*:1])[*:2]; 2Nal = N[C@@H](Cc1ccc2ccccc2c1)C(=O)O; AEF = NCCOc1ccc(C[C@H](N)C(=O)O)cc1; αMeF = C[C@](N)(Cc1ccccc1)C(=O)O; Cit = NC(=O)NCCC[C@H](N)C(=O)O; Pen = CC(C)(S)[C@H](N)C(=O)O; αMeK = C[C@](N)(CCCCN)C(=O)O; Aib = CC(C)(N)C(=O)O
Target: T1, IL-23R (Homo sapiens, UniProt Q5VWK5)
T1 sequence (Q5VWK5 24-629): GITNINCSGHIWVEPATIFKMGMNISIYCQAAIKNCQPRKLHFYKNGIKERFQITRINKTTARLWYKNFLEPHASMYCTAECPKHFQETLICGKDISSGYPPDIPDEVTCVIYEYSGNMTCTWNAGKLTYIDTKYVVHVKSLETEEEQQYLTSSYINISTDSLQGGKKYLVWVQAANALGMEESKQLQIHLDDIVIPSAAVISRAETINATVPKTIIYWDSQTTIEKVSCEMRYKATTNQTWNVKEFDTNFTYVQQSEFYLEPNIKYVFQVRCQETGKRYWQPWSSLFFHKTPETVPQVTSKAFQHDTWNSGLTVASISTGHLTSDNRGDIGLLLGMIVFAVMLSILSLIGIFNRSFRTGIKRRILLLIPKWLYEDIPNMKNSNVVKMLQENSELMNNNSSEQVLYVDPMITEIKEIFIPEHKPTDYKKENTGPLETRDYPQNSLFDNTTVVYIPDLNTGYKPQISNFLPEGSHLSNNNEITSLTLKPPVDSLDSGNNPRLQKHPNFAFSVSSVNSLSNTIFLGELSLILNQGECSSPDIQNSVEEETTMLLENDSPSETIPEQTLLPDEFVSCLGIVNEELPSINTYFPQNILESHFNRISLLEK
Assay: DB cells IL23R pSTAT3 cell assay (pStat3 HTRF)
Assay type: cell-based
From the text: Human ELISA indicates the IL23-IL23R competitive binding assay described below, Rat ELISA indicates the rat IL-23R competitive binding ELISA assay described below, and pStat3HTRF indicates the DB cells IL-23R pSTAT3 cell assay described below. The peptides depicted in Table E1 are cyclized via a disulfide bridge formed between two Pen residues in these peptides. The peptides depicted in Table E2 are cyclized via a thioether bond between the indicated amino acid residues. Table E2 provides an illustrative structure depicting thioether cyclization, which is indicated in the table by the term “cyclo,” with the cyclic region bracketed immediately following the term “cyclo.” For certain peptides, the residue Abu is present where indicated, whereas in other embodiments, e.g., those related to the non-cyclized form, the Abu may be referred to as a hSer(Cl) or homoSer residue.
DB Cells IL23R pSTAT3 Cell Assay
IL-23 plays a central role in supporting and maintaining Th17 differentiation in vivo. This process is thought to be mediated primarily through the Signal Transducer and Activator of Transcription 3 (STAT3), with phosphorylation of STAT3 (to yield pSTAT3) leading to upregulation of RORC and pro-inflammatory IL-17. This cell assay examines the levels of pSTAT3 in IL-23R-expressing DB cells when stimulated with IL-23 in the presence of test compounds. Serial dilutions of test peptides and IL-23 (Humanzyme #HZ-1261) at a final concentration of 0.5 nM, were added to each well in a 96 well tissue culture plate (Corning #CLS3894). DB cells (ATCC #CRL-2289), cultured in RPMI-1640 medium (Thermo Scientific #11875093) supplemented with 10% FBS, were added at 5×10E5 cells/well and incubated for 30 minutes at 37° C. in a 5% CO2 humidified incubator. Changes in phospho-STAT3 levels in the cell lysates were detected using the Cisbio HTRF pSTAT3 (Tyr705) Cellular Assay Kit (Cisbio #62AT3PEH), according to manufacturer's Two Plate Assay protocol.

[1] = Table E3, DB cells, IL-23 0.5 nM, 30 minutes at 37° C., read-out: pStat3 HTRF (IC50)

Row | Structure (SMILES) | IC50 [1] | IC50
1 | CC(=O)NCCCC[C@@H]1NC(=O)[C@H](Cc2c[nH]c3c(C)cccc23)NC(=O)[C@H]([C@@H](C)O)NC(=O)[C@H](CCC(N)=O)NC(=O)[C@@H](NC(=O)[C@@H](CCCNC(=N)N)NC(C)=O)CCSC[C@@H](C(=O)N[C@@H](Cc2ccc(OCCN)cc2)C(=O)N[C@@H](Cc2ccc3ccccc3c2)C(=O)N[C@@](C)(CCCCN)C(=O)N[C@@H](CCCCNC(C)=O)C(=O)N[C@@H](CC(N)=O)C(=O)N[C@@](C)(Cc2ccccc2)C(N)=O)NC1=O [compound 327] (Ac-[dR][Abu(4-yl)]QT[Trp(7-Me)]K(Ac)C[AEF][2Nal][αMeK]K(Ac)N[αMeF]-NH2; thioether 2-7) | 10 to 100 nM | 
2 | CC(=O)NCCCC[C@H](NC(=O)[C@](C)(CC(C)C)NC(=O)[C@H](Cc1ccc2ccccc2c1)NC(=O)[C@H](Cc1ccc(OCCN)cc1)NC(=O)[C@H]1NC(=O)[C@H](CCC(N)=O)NC(=O)[C@H](Cc2c[nH]c3ccc(Cl)cc23)NC(=O)[C@H]([C@@H](C)O)NC(=O)[C@H](CC(N)=O)NC(=O)[C@@H](NC(C)=O)C(C)(C)SSC1(C)C)C(=O)N[C@@H](CC(N)=O)C(=O)N[C@@H](CC(N)=O)C(N)=O [compound 1] |  | 10 to 100 nM
3 | CC(=O)NCCCC[C@H](NC(=O)[C@](C)(CC(C)C)NC(=O)[C@H](Cc1c[nH]c2ccc(Cl)cc12)NC(=O)[C@H](Cc1ccc(OCCN)cc1)NC(=O)[C@H]1NC(=O)[C@H](CCC(N)=O)NC(=O)[C@H](Cc2c[nH]c3ccccc23)NC(=O)[C@H]([C@@H](C)O)NC(=O)[C@H](CC(N)=O)NC(=O)[C@@H](NC(C)=O)C(C)(C)SSC1(C)C)C(=O)N[C@@H](CC(N)=O)C(=O)N[C@@H](CC(N)=O)C(N)=O [compound 12] |  | > 100 nM
4 | CC(=O)NCCCC[C@H](NC(=O)[C@](C)(CC(C)C)NC(=O)[C@H](Cc1c[nH]c2ccc(F)cc12)NC(=O)[C@H](Cc1ccc(OCCN)cc1)NC(=O)[C@H]1NC(=O)[C@H](CCC(N)=O)NC(=O)[C@H](Cc2c[nH]c3ccccc23)NC(=O)[C@H]([C@@H](C)O)NC(=O)[C@H](CC(N)=O)NC(=O)[C@@H](NC(C)=O)C(C)(C)SSC1(C)C)C(=O)N[C@@H](CC(N)=O)C(=O)N[C@@H](CC(N)=O)C(N)=O [compound 18] |  | 10 to 100 nM
5 | CC(=O)N[C@H](CCCNC(=N)N)C(=O)N[C@H]1CCSC[C@@H](C(=O)N[C@@H](Cc2ccc(OCCN)cc2)C(=O)N[C@@H](Cc2ccc3ccccc3c2)C(=O)NC2(C(=O)N[C@@H](CCC(=O)O)C(=O)N[C@@H](CC(N)=O)C(=O)NCCC(N)=O)CCOCC2)NC(=O)[C@H](CCC(N)=O)NC(=O)[C@H](Cc2c[nH]c3c(C)cccc23)NC(=O)[C@H]([C@@H](C)O)NC(=O)[C@H](CCC(N)=O)NC1=O [compound 203] | 1 to 10 nM | 

The next lines start with results.

Row | IC50 [1] | Structure (SMILES) | IC50
6 | 1 to 10 nM | COc1cccc2c(C[C@@H]3NC(=O)[C@H]([C@@H](C)O)NC(=O)[C@H](CC(N)=O)NC(=O)[C@@H](NC(C)=O)C(C)(C)SSC(C)(C)[C@@H](C(=O)N[C@@H](Cc4ccc(OCCN)cc4)C(=O)N[C@@H](Cc4ccc5ccccc5c4)C(=O)N[C@@](C)(CCCCN)C(=O)N[C@@H](CCCCNC(C)=O)C(=O)N[C@@H](CC(N)=O)C(=O)N[C@H](CCCCN)C(N)=O)NC(=O)[C@H](CCC(N)=O)NC3=O)c[nH]c12 [compound 297] | 
7 | < 1 nM | CC(=O)NCCCC[C@H](NC(=O)[C@](C)(CCCCN)NC(=O)[C@H](Cc1ccc2ccccc2c1)NC(=O)[C@H](Cc1ccc(OCCN)cc1)NC(=O)[C@H]1NC(=O)[C@H](CCCNC(N)=O)NC(=O)[C@H](Cc2c[nH]c3c(C)cccc23)NC(=O)[C@H]([C@@H](C)O)NC(=O)[C@H](CC(N)=O)NC(=O)[C@@H](NC(C)=O)C(C)(C)SSC1(C)C)C(=O)N[C@@H](CC(N)=O)C(=O)NC(C)(C)C(=O)N[C@H](Cc1ccccc1)C(N)=O [compound 346] (Ac-[Pen]NT[Trp(7-Me)][Cit][Pen][AEF][2Nal][αMeK]K(Ac)N[Aib][dF]-NH2; disulfide 1-6) | 

Reference: patent US20260116921A1, “PEPTIDE INHIBITORS OF INTERLEUKIN-23 RECEPTOR AND THEIR USE TO TREAT INFLAMMATORY DISEASES” (priority 2018, published 2026)
